According to US20220354929A1, “PEPTIDES AND USES THEREOF” (LATERAL IP PTY LTD, priority 2019, published 2022):
Where “and” joins values, the source holds several entries; their conditions need not be identical. Identical values can stand only once. Entries after “also recorded” stand apart in the source; their conditions may differ.

Key:
dorsal horn neurones = assay: whole-cell patch clamp recording in spinal cord slices from Chung models of neuropathic pain: membrane properties of dorsal horn neurones; assay type: cell-based, rat; settings: for Membrane Potential, mean in presence of peptide: ipsilateral to injury; for Normalised Input Resistance, mean in presence of peptide / Normalised Input Resistance, ΔIR: control = 100; for reversal potential of peptide-induced response (intersection of VI relations): individual neurones; for Normalised Membrane Potential, mean in presence of peptide / Normalised Membrane Potential, ΔVm: rest = 100
Description: (§1) An in vitro spinal cord slice with intact dorsal root afferents combined with single-cell whole-cell patch clamp electrophysiological recording techniques was used to assess the electrophysiological properties of the peptides having the amino acid sequence of SEQ ID NO:2, 3, 4 and 5.
The spinal nerve ligation model (Chung model) was first reported by Kim and Chung (1992; Pain, 50(3):355-63) and involves a single tight ligation of the L5 spinal nerve. […] This model has been used as a “gold standard” model for assessing the efficacy of novel compounds targeting neuropathic pain.
Adult male Sprague-Dawley rats, 8-9 weeks old, weighing 220-250 g at the time of surgery, were purchased from Charles River UK Ltd. The animals were housed in groups of 4 in an air-conditioned room on a 12-hour light/dark cycle. Food and water were available ad libitum. They were allowed to acclimatise to the experimental environment for three days by leaving them on a raised metal mesh for at least 40 min. The baseline paw withdrawal threshold (PWT) was examined using a series of graduated von Frey hairs for 3 consecutive days before surgery and re-assessed on the 6th to 8th day after surgery and on the 12th to 14th day after surgery before drug dosing. Each rat was anaesthetized with 5% isoflurane mixed with oxygen (2L per min) followed by an intramuscular (i.m.) injection of ketamine 90 mg/kg plus xylazine 10 mg/kg. The back was shaved and sterilized with povidone-iodine. The animal was placed in a prone position and a para-medial incision was made on the skin covering the L4-6 level. The L5 spinal nerve was carefully isolated and tightly ligated with 6/0 silk suture. The wound was then closed in layers after a complete hemostasis. A single dose of antibiotics (Amoxipen, 15 mg/rat, i.p.) was routinely given for prevention of infection after surgery. The animals were placed in a temperature-controlled recovery chamber until fully awake before being returned to their home cages.
(§2) Chung model rats, aged 8 to 12 weeks, were housed in an air-conditioned room on a 12 hour light/dark cycle with food and water available ad libitum. The rats were terminally anaesthetized using isofluorane and decapitated. The vertebral column, rib cage and surrounding tissues were rapidly removed and pinned under ice-cold (<4° C.), high sucrose-containing artificial cerebrospinal fluid (aCSF) comprising: 127 mM sucrose, 1.9 mM KCl, 1.2 mM KH2PO4, 0.24 mM CaCl2, 3.9 mM MgCl2, 26 mM NaHCO3, 10 mM D-glucose and 0.5 mM ascorbic acid. A laminectomy was performed and the spinal cord and associated roots gently dissected and teased out of the spinal column and surrounding tissues. Dura and pia mater and ventral roots were subsequently removed with fine forceps and the spinal cord hemisected. Care was taken to ensure dorsal root inputs to the spinal cord were maintained. The hemisected spinal cord-dorsal root preparations were secured to a tissue slicer and spinal cord slices (400 to 450 μm thick) with dorsal roots attached were cut in chilled (<4° C.) high sucrose aCSF using a Leica VT1000s microtome.
(§3) Slices were transferred to a small beaker containing ice cold aCSF with 127 mM NaCl, 1.9 mM KCl, 1.2 mM KH2PO4, 1.3 mM MgCl2, 2.4 mM CaCl2, 26 mM NaHCO3 and 10 mM D-glucose, and rapidly warmed to 35° C. ±1° C. in a temperature-controlled water bath over a 20 minute period, then subsequently removed and maintained at room temperature (22° C. ±2° C.) prior to electrophysiological recording. Electrophysiological recording was performed in aCSF comprising 127 mM NaCl, 1.9 mM KCl, 1.2 mM KH2PO4, 1.3 mM MgCl2, 2.4 mM CaCl2, 26 mM NaHCO3 and 10 mM D-glucose.
Whole-cell recordings were performed at 34-35° C. from Lamina I or II neurones in the dorsal horn of the spinal cord slices using Axopatch 1D and/or Multiclamp 700B amplifies and using the “blind” version of the patch-clamp technique. […]

[1] = system: dorsal root afferent-mediated synaptic inputs to dorsal horn neurones; assay: whole-cell recording in spinal cord slices from Chung models: dorsal root afferent-mediated synaptic inputs (evoked EPSPs/IPSPs); assay type: cell-based, rat; settings: for effect on dorsal root-evoked EPSPs / excitatory synaptic transmission (in words) / effect on dorsal root-evoked IPSPs / inhibitory synaptic transmission (in words): peptide 5 μM, dorsal root stimulation 0.1 Hz
Procedure: as §1, §2, §3
Whole-cell recordings were performed at 34-35° C. from Lamina I or II neurones in the dorsal horn of the spinal cord slices using Axopatch 1D and/or Multiclamp 700B amplifies and using the “blind” version of the patch-clamp technique.
Patch pipettes were pulled from thin-walled borosilicate glass with resistances of between 3 and 8 MS2 when filled with intracellular solution (140 mM potassium gluconate, 10 mM KCl, 1 mM EGTA-Na, 10 mM HEPES, 4 mM Na2ATP, 0.3 mM Na-GTP). The peptides of SEQ ID NOs:2, 3, 4 or 5 (LAT7771, LAT7772, LAT7773 or LAT7774) were diluted in the tissue bath at a concentration of 5 μM.
A concentric bipolar stimulating electrode was placed appropriately either on the dorsal root or dorsal root entry zone to evoke postsynaptic potentials/currents in recorded cells (see FIG. 1). […] EPSPs/EPSCs were confirmed as monosynaptic on the basis of being characterised by a constant latency and rise-time with few failures.
Recordings were monitored on an oscilloscope and stored on digital audio tapes for later off-line analysis. In addition, data were low-pass filtered at 2-5 kHz, (1 kHz for voltage-clamp data), digitized at 2-10 kHz and stored on a PC running pCLAMP 10 data acquisition software (Axon Instruments). Analysis of electrophysiological data was carried out using Clampfit 10 software.

[2] = system: Chung model of neuropathic pain; assay: paw withdrawal threshold (von Frey) in Chung model of neuropathic pain, oral or intramuscular administration; assay type: in vivo, rat; settings: for paw withdrawal threshold (PWT) / reversal of mechanical allodynia: 2 hours after administration, ipsilateral side
Description: Chung model of neuropathic pain was used to compare the in vivo efficacy of LAT8881 and LAT7771 administered orally or intramuscularly.
The spinal nerve ligation model (Chung model) was first reported by Kim and Chung (1992; Pain, 50(3):355-63) and involves a single tight ligation of the L5 spinal nerve. […] This model has been used as a “gold standard' model for assessing the efficacy of novel compounds targeting neuropathic pain.
Adult male Sprague-Dawley rats, 8-9 weeks old, weighing 220-250 g at the time of surgery, were anaesthetised with 3% isoflurane mixed with oxygen followed by an intramuscular injection of a mixture of ketamine and xylazine. The back was shaved and sterilised with povidone-iodine soaked cotton balls. The L5 spinal nerve was carefully isolated and tightly located with 6/0 silk suture and the wound was closed in layers. The single-dose antibiotics (Amoxipen, 100 mg/kg, i.p.) was routinely given for prevention of infection after surgery.
The animals were placed in individual Perspex boxes on a raised metal mesh for at least 40 minutes. Starting with the filament of lowest force (1 g), each filament was applied perpendicularly to the centre of the ventral surface of the paw until slightly bent for 6 seconds. If the animal withdrew or lifted its paw upon stimulation, a von Frey hair with force immediately lower than that tested was subsequently used. If no response was observed, then a hair with force immediately higher was tested. The lowest amount of force required to induce reliable responses (positive in 2 out of 3 trials) was recorded as the value of […] (PWT).
PWT was assessed once daily for three days before surgery and once a week for monitoring the development of mechanical allodynia.
All drug tests were carried out on the 13th to 17th day after surgery. All drug dosing was ‘blindly’ carried out by a second experimenter. The test compounds were administered and PWT was assessed before and 2 hours following drug or vehicle (5% DMSO) administration.

[3] = solubility in distilled water
[4] = LAT8881, concentration not given, one neurone

Row | Sequence | effect on inward rectification (in words) (dorsal horn neurones; peptide 5 μM) | effect on neuronal input resistance (in words) (dorsal horn neurones; peptide 5 μM) | Input Resistance, mean in presence of peptide (dorsal horn neurones; peptide 5 μM, all cells) | Membrane Potential, mean in presence of peptide (dorsal horn neurones; peptide 5 μM, all cells) | Normalised Input Resistance, mean in presence of peptide (dorsal horn neurones; peptide 5 μM) | Normalised Input Resistance, ΔIR (dorsal horn neurones; peptide 5 μM) | reversal potential of peptide-induced response (intersection of VI relations) (dorsal horn neurones; peptide 5 μM) | Normalised Membrane Potential, mean in presence of peptide (dorsal horn neurones; peptide 5 μM) | Normalised Membrane Potential, ΔVm (dorsal horn neurones; peptide 5 μM) | effect on dorsal root-evoked EPSPs / excitatory synaptic transmission (in words) [1] | effect on dorsal root-evoked IPSPs / inhibitory synaptic transmission (in words) [1] | paw withdrawal threshold (PWT) / reversal of mechanical allodynia ([2]; 10 mg/kg intramuscularly (IM)) | paw withdrawal threshold (PWT) / reversal of mechanical allodynia ([2]; 10 mg/kg orally (PO)) | further results
1 | CRIIHNNNC [LAT7771, C-terminal fragment of human prolactin spanning residues 219-227 of human prolactin precursor] | enhancement or increase in the strength of inward rectification; also recorded: enhanced inward rectification | little change in neuronal input resistance; also recorded: marginal increase in neuronal input resistance | 447.6 MΩ | −53.8±2.8 mV and −53.8 mV | 94.8 | 5.2 | −55 mV (2×) and −45 mV and −40 mV | 94.8 | 5.2 | In four neurones, dorsal root evoked EPSPs at a frequency of 0.1 Hz were reduced; also recorded: consistently reduced dorsal root-evoked EPSPs; also recorded: EPSPs were suppressed | In two of these neurones, suppression of EPSPs uncovered or activated IPSPs; also recorded: in two neurones promoted inhibitory synaptic transmission; also recorded: enhanced inhibitory synaptic transmission | significantly increased the PWT | significantly increased the PWT | effect on membrane potential / postsynaptic membrane properties (in words) (dorsal horn neurones; peptide 5 μM): little effect on a further 3 dorsal horn neurones; also recorded: principally induced membrane depolarisation; also recorded: membrane depolarisation and an increase in spontaneous firing; also recorded: minimal membrane depolarisation; also recorded: little or no effect on postsynaptic properties; change in neuronal input resistance (dorsal horn neurones; peptide 5 μM vs control): 15.8 ± 36.1 MΩ; ΔIR, change in neuronal input resistance (dorsal horn neurones; peptide 5 μM vs control, table prints control minus drug, text the magnitude): −15.8 MΩ; neuronal input resistance in the presence of peptide (dorsal horn neurones; peptide 5 μM, all cells): 447.6±119.4 MS2; effect on dorsal root-evoked IPSPs (in words) ([1]; prolactin 500 nM, 0.1 Hz and 5 Hz): lack of effect; analgesic properties in vivo ([2]; compared with LAT8881): comparable to that of LAT8881
2 | CRIVYDSNC [LAT7773, C-terminal fragment of canine prolactin, residues 221-229 of canis lupus familiaris prolactin precursor] | enhancing inward rectification; also recorded: enhanced inward rectification | variable effects on input resistance inducing a decrease in 4 neurones and an increase in 5 neurones; also recorded: small increase in neuronal input resistance | 373.5±103.6 MΩ and 373.5 MΩ | −50.3±3.0 mV and −50.3 mV | 99.9 | 0.1 | no clear reversal potential in 7 neurones; also recorded: around −93 mV; also recorded: around −92 mV | 88.4 | 11.6 | In three neurones electrical stimulation of dorsal roots (0.1 Hz) evoked EPSPs that were suppressed; also recorded: In two other neurones EPSPs, and in one of these IPSPs, were enhanced; also recorded: remaining two neurones showed no change; also recorded: in some neurones depressed whilst in others they were clearly potentiated; also recorded: reducing dorsal root afferent-mediated synaptic inputs; also recorded: little effect on dorsal root afferent-mediated excitatory synaptic transmission; also recorded: increase in dorsal root afferent-mediated synaptic transmission | in one of these IPSPs, were enhanced; also recorded: both EPSPs and IPSPs were enhanced | – | – | solubility in distilled water [3]: soluble; membrane hyperpolarisation in individual neurones (dorsal horn neurones; peptide 5 μM, responding neurones): 7.6 mV
3 | YLRIVQCRSVEGSCGF [LAT8881, human growth hormone derived analgesic compound of PCT/AU2019/050020, reference compound] | – | – | – | – | – | – | – | – | – | – | – | reversed mechanical allodynia; also recorded: significantly increased the PWT | reversed mechanical allodynia; also recorded: significantly increased the PWT | effect on postsynaptic properties (in words) (dorsal horn neurones; LAT8881, concentration not given, one neurone, after wash of LAT7771): little or no effect on postsynaptic properties; effect on dorsal root-evoked EPSPs (in words) [1, 4]: suppressing EPSPs; effect on inhibitory synaptic transmission / IPSPs (in words) [1, 4]: partly mimicked by LAT8881; also recorded: enhanced inhibitory synaptic transmission
